From the supplement of paper PMC10307832

Experiments:
Experiment in all cases: relative viability (nuclei count vs DMSO), 5 days (fraction); higher = more cells survive
CUDC-101 + Phenformin = compound: C#Cc1cccc(Nc2ncnc3cc(OC)c(OCCCCCCC(=O)NO)cc23)c1 [CUDC-101] + N=C(N)NC(=N)NCCc1ccccc1 [Phenformin] (partner 250 µM)
In short: (§1)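 Dosing by pin tool came one day after lung cancer cell lines were seeded in 1536-well plates, using either one drug or a fixed anchor-drug dose plus five library-drug doses (not always all listed) in √10 steps. After 5 days, nuclei were counted on 4× images. Relative viability is treated-well nuclei count divided by vehicle-well nuclei count, and values are medians of duplicate plates.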

CUDC-101 + Palbociclib = compound: C#Cc1cccc(Nc2ncnc3cc(OC)c(OCCCCCCC(=O)NO)cc23)c1 [CUDC-101] + CC(=O)c1c(C)c2cnc(Nc3ccc(N4CCNCC4)cn3)nc2n(C2CCCC2)c1=O [Palbociclib] (partner 0.5 µM)
In short: as §1

NVP-TAE684 + Tozasertib = compound: COc1cc(N2CCC(N3CCN(C)CC3)CC2)ccc1Nc1ncc(Cl)c(Nc2ccccc2S(=O)(=O)C(C)C)n1 [NVP-TAE684] + Cc1cc(Nc2cc(N3CCN(C)CC3)nc(Sc3ccc(NC(=O)C4CC4)cc3)n2)n[nH]1 [Tozasertib] (partner 0.1 µM)
In short: as §1

NVP-TAE684 + Olaparib = compound: COc1cc(N2CCC(N3CCN(C)CC3)CC2)ccc1Nc1ncc(Cl)c(Nc2ccccc2S(=O)(=O)C(C)C)n1 [NVP-TAE684] + O=C(c1cc(Cc2n[nH]c(=O)c3ccccc23)ccc1F)N1CCN(C(=O)C2CC2)CC1 [Olaparib] (partner 8 µM)
In short: as §1

Cell Line	relative viability (CUDC-101 + Phenformin; first compound 0.01 µM)	relative viability (CUDC-101 + Phenformin; first compound 0.03162 µM)	relative viability (CUDC-101 + Phenformin; first compound 0.1 µM)	relative viability (CUDC-101 + Phenformin; first compound 0.3162 µM)	relative viability (CUDC-101 + Phenformin; first compound 1 µM)	relative viability (CUDC-101 + Palbociclib; first compound 0.01 µM)	relative viability (CUDC-101 + Palbociclib; first compound 0.03162 µM)	relative viability (CUDC-101 + Palbociclib; first compound 0.1 µM)	relative viability (CUDC-101 + Palbociclib; first compound 0.3162 µM)	relative viability (CUDC-101 + Palbociclib; first compound 1 µM)	relative viability (NVP-TAE684 + Tozasertib; first compound 0.2 µM)	relative viability (NVP-TAE684 + Tozasertib; first compound 0.6325 µM)	relative viability (NVP-TAE684 + Tozasertib; first compound 2 µM)	relative viability (NVP-TAE684 + Olaparib; first compound 0.2 µM)	relative viability (NVP-TAE684 + Olaparib; first compound 0.6325 µM)	relative viability (NVP-TAE684 + Olaparib; first compound 2 µM)
201T	0.438	0.442	0.424	0.411	0.358	0.332	0.38	0.347	0.344	0.353	0.925	0.942	0.536	0.886	0.823	0.815
A549	0.172	0.192	0.143	0.158	0.141									0.308	0.387	0.3
A-427	0.328	0.347	0.464	0.502	0.389	0.562	0.538	0.501	0.496	0.487	0.175	0.187	0.144	0.814	0.674	0.631
ABC-1	0.256	0.256	0.212	0.247	0.186	0.647	0.682	0.864	0.587	0.454	0.17	0.147	0.127	0.636	0.692	0.37
BEN	0.29	0.259	0.239	0.256	0.209	0.432	0.477	0.522	0.513	0.479	0.513	0.492	0.392	1.04	0.971	0.894
CAL-12T	0.67	0.563	0.617	0.616	0.513	0.81	0.448	0.333	0.412	0.34	0.278	0.315	0.117	0.664	0.781	0.267
COR-L23	0.479	0.456	0.419	0.365	0.25	0.275	0.332	0.283	0.253	0.128	0.197	0.223	0.138	0.273	0.282	0.281
COR-L 105	0.627	0.481	0.447	0.528	0.198	0.383	0.404	0.408	0.427	0.294	0.364	0.315	0.23	0.695	0.595	
Calu-6														0.657	0.519	0.357
ChaGo-K-1	0.467	0.542	0.508	0.558	0.41	0.918	0.908	0.94	0.909	0.738	0.214	0.206	0.16	0.422	0.418	0.345
EBC-1														0.713	0.661	0.55
EKVX	0.255	0.229	0.211	0.244	0.222	0.374	0.335	0.336	0.405	0.323	0.391	0.36	0.274	0.868	0.678	0.464
EMC-BAC-2	0.616	0.472	0.549	0.487	0.365	0.546	0.514	0.502	0.502	0.375	0.284	0.266	0.233	0.506	0.447	0.35
EPLC-272H	0.279	0.297	0.201	0.136	0.114	0.318	0.314	0.279	0.282	0.261	0.25	0.21	0.103	0.321	0.577	0.162
H3255	0.367	0.322		0.31	0.166	0.335	0.351	0.324	0.292	0.238	0.639	0.717	0.409	0.539	0.532	0.407
HARA	0.4	0.397	0.476	0.501	0.248	0.278	0.204	0.246	0.224	0.172	0.0965	0.0875	0.0538	0.76	0.891	0.299
HCC-15	0.434	0.432	0.521	0.556	0.376	0.737	0.74	0.793	0.818	0.648	0.368	0.389	0.176	0.745	0.748	0.577
HCC-44	0.163	0.185	0.22	0.185	0.139	1.02	0.943	0.951	0.986	1.05	1	0.848	0.338	0.997	1.07	0.905
HCC-78	0.709	0.705	0.675	0.602	0.246	0.44	0.483	0.458	0.427	0.374	0.361	0.429	0.217	0.727	0.859	0.406
HCC-366	0.604	0.555	0.704	0.667	0.64	0.411	0.442	0.389	0.39	0.296	0.108	0.124	0.0322	0.352	0.326	0.288
HCC-827	0.376	0.18	0.161	0.143	0.14	0.35	0.283	0.155	0.169	0.142	0.462	0.41	0.715	0.697	0.585	0.668
HOP-62	0.628	0.656	0.758	0.683	0.545	0.448	0.38	0.478	0.421	0.425	0.397	0.386	0.294	0.291	0.33	0.811
IA-LM														0.745	0.799	0.638

Cell Line	relative viability (CUDC-101 + Phenformin; first compound 0.01 µM)	relative viability (CUDC-101 + Phenformin; first compound 0.03162 µM)	relative viability (CUDC-101 + Phenformin; first compound 0.1 µM)	relative viability (CUDC-101 + Phenformin; first compound 0.3162 µM)	relative viability (CUDC-101 + Phenformin; first compound 1 µM)	relative viability (CUDC-101 + Palbociclib; first compound 0.01 µM)	relative viability (CUDC-101 + Palbociclib; first compound 0.03162 µM)	relative viability (CUDC-101 + Palbociclib; first compound 0.1 µM)	relative viability (CUDC-101 + Palbociclib; first compound 0.3162 µM)	relative viability (CUDC-101 + Palbociclib; first compound 1 µM)	relative viability (NVP-TAE684 + Tozasertib; first compound 0.2 µM)	relative viability (NVP-TAE684 + Tozasertib; first compound 0.6325 µM)	relative viability (NVP-TAE684 + Tozasertib; first compound 2 µM)	relative viability (NVP-TAE684 + Olaparib; first compound 0.2 µM)	relative viability (NVP-TAE684 + Olaparib; first compound 0.6325 µM)	relative viability (NVP-TAE684 + Olaparib; first compound 2 µM)
LC-2-ad	0.65	0.651	0.689	0.551	0.287	0.501	0.553	0.477	0.482	0.451	0.448	0.377	0.286	0.75	0.675	0.464
LCLC-97TM1	0.426	0.381	0.436	0.471	0.362	0.203	0.228	0.252	0.173	0.164	0.184	0.224	0.0618	0.443	0.326	0.154
LCLC-103H	0.384	0.367	0.36	0.357	0.31	0.47	0.51	0.491	0.45	0.436	0.432	0.433	0.303	0.794	0.783	0.726
LK-2	0.369	0.727	0.411	0.479	0.15	0.824	0.662	0.574	0.593	0.194	0.154	0.191	0.179	0.698	0.698	0.451
LOU-NH91	0.736	0.56	0.534	0.587	0.393	0.574	0.445	0.529	0.581	0.515	0.622	0.576	0.475	0.888		0.657
LU99A	0.825	0.682	0.676	0.947	0.572	0.332	0.391	0.374	0.425	0.212	0.298	0.293	0.206	0.283	0.266	0.24
LXF-289	0.536	0.523	0.55	0.493	0.408	0.6	0.604	0.571	0.589	0.515	0.263	0.168	0.0842	0.931	1.08	0.487
NCI-H23	0.793	0.743	0.81	0.851	0.789	0.463	0.562	0.563	0.535	0.446	0.402	0.367	0.241	0.312	0.211	0.187
NCI-H322M	0.786	0.69	0.64	0.586	0.438	0.515	0.47	0.465	0.497	0.436	0.42	0.414	0.294	0.715	0.723	0.558
NCI-H358	0.378	0.346	0.32	0.312	0.193	0.148	0.152	0.141	0.137	0.119	0.0952	0.0896	0.0684	0.637	0.579	0.275
NCI-H441	0.88	0.486	0.764	0.917	0.776	0.222	0.255	0.183	0.231	0.221	0.608	0.554	0.266	0.617	0.659	0.309
NCI-H460	0.528	0.501	0.554	0.526	0.486	0.277	0.223	0.135	0.149	0.0952	0.671	0.498	0.4	0.537	0.484	0.633
NCI-H520	0.55	0.494	0.576	0.581	0.247	0.227	0.199	0.277	0.32	0.225	0.408	0.466	0.358	0.327	0.332	0.198
NCI-H522	0.677	0.688	0.777	0.744	0.572	0.96	0.795	0.876	0.985	0.741	0.53	0.692	0.509	0.642	0.664	0.662
NCI-H596	0.886	0.729	0.751	0.772	0.698						1.17	0.883	0.861	0.66	0.595	0.537
NCI-H647	0.564	0.483	0.574	0.418	0.21	0.417	0.345	0.383	0.386	0.253	0.0998	0.288	0.115	0.434	0.562	0.16
NCI-H1299														0.979	1.02	0.682
NCI-H1563	0.664	0.643	0.745	0.613	0.659											
NCI-H1623	0.565	0.597	0.539	0.631	0.457						0.442	0.427	0.393			
NCI-H1648						0.243	0.273	0.256	0.27	0.211	0.413	0.458	0.262	0.45	0.863	0.287
NCI-H1703														0.368	0.413	0.14
NCI-H1792	0.323	0.332		0.145	0.277	0.675	0.649	0.7	0.675	0.647				0.52	0.37	0.248
